Measurements as given in ChEMBL document CHEMBL4261542, “Recent advances in combretastatin based derivatives and prodrugs as antimitotic agents” (Medchemcomm, 2017).
Values belong to the compound of their own block, whether it stands above or below them.

How the values were obtained:
Tubulin = assay: Inhibition of tubulin polymerization (unknown origin); assay type: protein-complex assay, Homo sapiens
A549 = assay: Antiproliferative activity against human A549 cells; assay type: functional, cell-based
MCF7 = assay: Antiproliferative activity against human MCF7 cells; assay type: functional, cell-based
DU-145 = assay: Antiproliferative activity against human DU145 cells after 48 hrs by MTT assay; assay type: functional, cell-based; settings: DU-145, 48 h
[1] = Inhibition of [3H]colchicine binding to bovine brain tubulin after 20 mins by spectrophotometric analysis; design: species or system Bos taurus
SGC-7901 = assay: Antiproliferative activity against human SGC7901 cells after 72 hrs by MTT assay; assay type: functional, cell-based; settings: SGC-7901, 72 h
HT-1080 = assay: Antiproliferative activity against human HT1080 cells after 72 hrs by MTT assay; assay type: functional, cell-based; settings: HT-1080, 72 h
KB = assay: Antiproliferative activity against human KB cells after 72 hrs by MTT assay; assay type: functional, cell-based
L929 = assay: Cytotoxicity against mouse L929 cells after 72 hrs by MTT assay; assay type: cell-based; settings: L929, 72 h

SMILES: COc1ccc(N2C(=O)CSC2c2cc(OC)c(OC)c(OC)c2)cc1 (stereo not given)
- IC50 (Tubulin): 2120 nM

SMILES: COc1cc(/C=C(\c2cc(OC)c(OC)c(OC)c2)c2nc3cc(OC)c(OC)cc3o2)ccc1O
- IC50 (A549): < 100 nM
- IC50 (MCF7): < 100 nM

SMILES: COc1cc(/C=C(\c2cc(OC)c(OC)c(OC)c2)c2nnc(-c3cc(OC)c(OC)c(OC)c3)o2)ccc1O
- IC50 (DU-145): 100 nM

More lines, main results first:

- IC50 (Tubulin): 1700 nM
SMILES: CCOc1ccc(-c2cc(C)nn2-c2cc(OC)c(OC)c(OC)c2)cc1Cl

- IC50 [1]: 870 nM
SMILES: CCOc1ccc(-c2nccn2-c2cc(OC)c(OC)c(OC)c2)cc1Cl

- IC50 (SGC-7901): 390 nM
- IC50 (HT-1080): 70 nM
- IC50 (KB): 45 nM
SMILES: COc1cc(-n2c(C)ccc2-c2cc(OC)c(OC)c(OC)c2)ccc1N
- IC50 (L929): 30100 nM
